In ChEMBL document CHEMBL1201862, “PubChem BioAssay data set” (2004):
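Each compound was tested at five concentrations against cells in 96-well plates for 48 hours. GI50 is the concentration that inhibits growth by half.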 Active and inactive are the calls of the source. Cut-off read from the data, not from the text of the source: active = GI50 up to about 1.1 µM and inactive = higher.

Tests used:
Experiment in all cases: inhibition of tumour cell growth, NCI panel, 48 h
NCI-H460 = system: NCI-H460
HOP-92 = system: HOP-92
RXF 393 = system: RXF 393
MOLT-4 = system: MOLT-4
HCT-15 = system: HCT-15
K562 = system: K562
ACHN = system: ACHN
EKVX = system: EKVX
OVCAR-4 = system: OVCAR-4
SNB-78 = system: SNB-78
SK-MEL-28 = system: SK-MEL-28
SR = system: SR
UACC-62 = system: UACC-62
IGROV-1 = system: IGROV-1
RPMI-8226 = system: RPMI-8226
SF-295 = system: SF-295
NCI-H522 = system: NCI-H522
DLD-1 = system: DLD-1
Malme-3M = system: Malme-3M
MCF7 = system: MCF7

Structure (SMILES) | GI50 (NCI-H460) | GI50 (HOP-92) | GI50 (RXF 393) | GI50 (MOLT-4) | GI50 (HCT-15) [µM] | GI50 (K562) | GI50 (ACHN) | GI50 (EKVX) | GI50 (OVCAR-4) | GI50 (SNB-78) | GI50 (SK-MEL-28) | GI50 (SR) | GI50 (UACC-62) | GI50 (IGROV-1) | GI50 (RPMI-8226) | GI50 (SF-295) | GI50 (NCI-H522) | GI50 (DLD-1) | GI50 (Malme-3M) | GI50 (MCF7)
Cc1cc(O)nc(NN2C(Cl)C(=O)C2c2ccco2)n1 (stereo not given) | 24.6 µM (inactive) | 25.1 µM (inactive) | 13 µM (inactive) | 21.8 µM (inactive) | 31.6 | 29.7 µM (inactive) | 28.2 µM (inactive) | 87.5 µM (inactive) | 19.7 µM (inactive) | 25.7 µM (inactive) | > 10 µM (inactive) | 28.4 µM (inactive) | 26.5 µM (inactive) | 27 µM (inactive) | 16.3 µM (inactive) | – | – | – | – | –
Oc1cc2cc(O)nc(O)c2c(O)n1 | > 100 µM (inactive) | > 100 µM (inactive) | > 100 µM (inactive) | > 100 µM (inactive) | > 100 | > 100 µM (inactive) | – | – | > 100 µM (inactive) | > 100 µM (inactive) | – | > 100 µM (inactive) | > 100 µM (inactive) | > 100 µM (inactive) | > 100 µM (inactive) | > 100 µM (inactive) | > 100 µM (inactive) | > 100 µM (inactive) | > 100 µM (inactive) | –
CC(=N/NC(=S)Nc1c(C)n(C)n(-c2ccccc2)c1=O)/C(C)=N\NC(=S)Nc1c(C)n(C)n(-c2ccccc2)c1=O | > 100 µM (inactive) | > 100 µM (inactive) | > 100 µM (inactive) | > 100 µM (inactive) | > 100 | – | > 100 µM (inactive) | > 100 µM (inactive) | > 100 µM (inactive) | – | – | > 100 µM (inactive) | > 100 µM (inactive) | – | – | > 100 µM (inactive) | > 100 µM (inactive) | – | > 100 µM (inactive) | –
CC(=O)Nc1ccc(C(=O)N2N=C(C)/C(=C/c3ccc(O)cc3)C2=O)cc1 | > 100 µM (inactive) | – | – | > 100 µM (inactive) | > 100 | > 100 µM (inactive) | > 100 µM (inactive) | > 100 µM (inactive) | > 100 µM (inactive) | > 100 µM (inactive) | > 100 µM (inactive) | > 100 µM (inactive) | – | – | > 100 µM (inactive) | > 100 µM (inactive) | > 100 µM (inactive) | > 100 µM (inactive) | > 100 µM (inactive) | –
COc1c2c(c3ccccc3c1O)C1C=CC2C1 (stereo not given) | 18.5 µM (inactive) | – | 15.5 µM (inactive) | 13.2 µM (inactive) | 10 | 3.85 µM (inactive) | 14.4 µM (inactive) | 18.8 µM (inactive) | 15.4 µM (inactive) | – | 23.3 µM (inactive) | 21 µM (inactive) | 15.4 µM (inactive) | 20.8 µM (inactive) | > 100 µM (inactive) | – | 14.9 µM (inactive) | 13.3 µM (inactive) | 6.3 µM (inactive) | –
O=C(O)c1c[nH]c2c(=O)[nH]cnc12 | – | > 100 µM (inactive) | > 100 µM (inactive) | > 100 µM (inactive) | > 100 | > 100 µM (inactive) | > 100 µM (inactive) | > 100 µM (inactive) | – | > 100 µM (inactive) | > 100 µM (inactive) | > 100 µM (inactive) | > 100 µM (inactive) | > 100 µM (inactive) | > 100 µM (inactive) | > 100 µM (inactive) | > 100 µM (inactive) | > 100 µM (inactive) | > 100 µM (inactive) | –
COc1ccc(-c2c3c(nc4[nH]c(=S)[nH]c(=S)c24)CCCC3)cc1OC | 18.5 µM (inactive) | – | 11.9 µM (inactive) | 19.9 µM (inactive) | 30.1 | 30 µM (inactive) | 51.1 µM (inactive) | 22.4 µM (inactive) | 36.6 µM (inactive) | – | 24.2 µM (inactive) | 27.9 µM (inactive) | 19.6 µM (inactive) | 29.9 µM (inactive) | 21 µM (inactive) | 14.7 µM (inactive) | – | – | 29 µM (inactive) | 29.6 µM (inactive)
Cc1cccc(NC(N)=S)c1 | > 100 µM (inactive) | – | > 100 µM (inactive) | > 100 µM (inactive) | > 100 | > 100 µM (inactive) | > 100 µM (inactive) | > 100 µM (inactive) | > 100 µM (inactive) | > 100 µM (inactive) | > 100 µM (inactive) | > 100 µM (inactive) | > 100 µM (inactive) | – | – | – | > 100 µM (inactive) | > 100 µM (inactive) | > 100 µM (inactive) | –
C/C(N)=N/OCc1nc(C)no1 | > 100 µM (inactive) | – | > 100 µM (inactive) | > 100 µM (inactive) | > 100 | > 100 µM (inactive) | > 100 µM (inactive) | > 100 µM (inactive) | > 100 µM (inactive) | – | > 100 µM (inactive) | > 100 µM (inactive) | > 100 µM (inactive) | – | > 100 µM (inactive) | > 100 µM (inactive) | > 100 µM (inactive) | – | – | > 100 µM (inactive)
COc1cc(CNc2nc3c(NC(C)=O)cc(C(F)(F)F)cc3nc2-c2ccccc2)cc(OC)c1OC | – | 17.8 µM (inactive) | 90.4 µM (inactive) | > 100 µM (inactive) | > 100 | > 100 µM (inactive) | > 100 µM (inactive) | > 100 µM (inactive) | 89.5 µM (inactive) | – | > 100 µM (inactive) | > 100 µM (inactive) | 39.7 µM (inactive) | > 100 µM (inactive) | > 100 µM (inactive) | > 100 µM (inactive) | > 100 µM (inactive) | > 100 µM (inactive) | 19.6 µM (inactive) | –
COc1ccc(C(=C2C=CC=C2)c2ccc(OC)cc2)cc1 | 32 µM (inactive) | 27.8 µM (inactive) | 25.2 µM (inactive) | 14.5 µM (inactive) | 25.5 | 22.2 µM (inactive) | 36.7 µM (inactive) | 41 µM (inactive) | > 100 µM (inactive) | – | 53.5 µM (inactive) | 25.9 µM (inactive) | 33.7 µM (inactive) | 52 µM (inactive) | 0.783 µM (active) | 16.9 µM (inactive) | 19.3 µM (inactive) | – | 28.8 µM (inactive) | 13.1 µM (inactive)
CC12CCC(C(=O)OC1=O)C(C)(C)O2 (stereo not given) | > 100 µM (inactive) | > 100 µM (inactive) | > 100 µM (inactive) | > 100 µM (inactive) | – | > 100 µM (inactive) | > 100 µM (inactive) | > 100 µM (inactive) | > 100 µM (inactive) | – | > 100 µM (inactive) | – | > 100 µM (inactive) | > 100 µM (inactive) | > 100 µM (inactive) | > 100 µM (inactive) | > 100 µM (inactive) | – | > 100 µM (inactive) | > 100 µM (inactive)
COc1ccc([C@@H]2ON(C)[C@H]3CN(C)C(=O)[C@@H]23)cc1 | > 100 µM (inactive) | > 100 µM (inactive) | – | > 100 µM (inactive) | > 100 | > 100 µM (inactive) | > 100 µM (inactive) | – | > 100 µM (inactive) | – | > 100 µM (inactive) | > 100 µM (inactive) | – | > 100 µM (inactive) | > 100 µM (inactive) | > 100 µM (inactive) | > 100 µM (inactive) | – | – | > 100 µM (inactive)
C[C@H](N)C(=O)N[C@@H]1[C@H]2C(=C(O)C[C@@H](O)[C@@H]2O)C(=O)O[C@@H]1C | > 100 µM (inactive) | > 100 µM (inactive) | > 100 µM (inactive) | > 100 µM (inactive) | > 100 | > 100 µM (inactive) | – | > 100 µM (inactive) | > 100 µM (inactive) | – | > 100 µM (inactive) | – | > 100 µM (inactive) | > 100 µM (inactive) | > 100 µM (inactive) | > 100 µM (inactive) | > 100 µM (inactive) | > 100 µM (inactive) | > 100 µM (inactive) | > 100 µM (inactive)
COP(=O)(OC)C(Cc1c[nH]c2ccccc12)NC(=O)OCc1ccccc1 (stereo not given) | > 100 µM (inactive) | > 100 µM (inactive) | – | – | > 100 | > 100 µM (inactive) | > 100 µM (inactive) | – | 91 µM (inactive) | – | > 100 µM (inactive) | > 100 µM (inactive) | – | > 100 µM (inactive) | > 100 µM (inactive) | > 100 µM (inactive) | > 100 µM (inactive) | – | – | > 100 µM (inactive)
BrC(/C=N/Nc1nnc(-c2ccccc2)c(-c2ccccc2)n1)C(Br)c1ccccc1 (stereo not given) | 35.2 µM (inactive) | 20.3 µM (inactive) | 25.1 µM (inactive) | 17.7 µM (inactive) | 28.7 | 22.6 µM (inactive) | 31 µM (inactive) | 29.9 µM (inactive) | > 10 µM (inactive) | 17.7 µM (inactive) | 37.3 µM (inactive) | – | 18.6 µM (inactive) | 41.7 µM (inactive) | 14.4 µM (inactive) | 30.5 µM (inactive) | 14.5 µM (inactive) | 23.8 µM (inactive) | 28.5 µM (inactive) | –
O=C(Nc1c(Cl)cc([N+](=O)[O-])cc1Cl)/C(=N\Nc1cccc(Cl)c1)c1c(O)c2ccccc2oc1=O | > 100 µM (inactive) | – | 66.2 µM (inactive) | > 100 µM (inactive) | – | 65.9 µM (inactive) | 49.2 µM (inactive) | 26.4 µM (inactive) | > 100 µM (inactive) | – | > 100 µM (inactive) | 78.7 µM (inactive) | 89.5 µM (inactive) | > 100 µM (inactive) | 50 µM (inactive) | > 100 µM (inactive) | 39.9 µM (inactive) | 42.9 µM (inactive) | > 100 µM (inactive) | –
Oc1[nH]c(Nc2cccc(Br)c2)nc2ncnc1-2 | > 100 µM (inactive) | 52 µM (inactive) | > 100 µM (inactive) | > 100 µM (inactive) | > 100 | 26.5 µM (inactive) | > 100 µM (inactive) | > 100 µM (inactive) | 15.5 µM (inactive) | – | > 100 µM (inactive) | 76.4 µM (inactive) | > 100 µM (inactive) | > 100 µM (inactive) | > 100 µM (inactive) | > 100 µM (inactive) | > 100 µM (inactive) | – | > 100 µM (inactive) | > 100 µM (inactive)
